These results are taken from PMC5589878, “Development of Fluorescent Probes that Target Serotonin 5-HT2B Receptors” (Scientific Reports, 2017).

A word on the melting point: it is the temperature, or range, at which the solid turns liquid. As a reminder, the pKi is −log10 of the Ki, conventionally taken in molar units. Higher therefore signals a low Ki. For orientation: pEC50 means −log10 of the EC50, conventionally taken in molar units. Lower therefore signals a large EC50.

Molecules are shown by their SMILES. pEC50, pKi: −log10 of the molar value.

One series has as its target T1, human 5-HT2C receptors (Homo sapiens, UniProt P28335).
T1 construct: expressed in transfected cells; host or cells: HeLa-5-HT2C cells (membranes)
T1 sequence (P28335 33-458): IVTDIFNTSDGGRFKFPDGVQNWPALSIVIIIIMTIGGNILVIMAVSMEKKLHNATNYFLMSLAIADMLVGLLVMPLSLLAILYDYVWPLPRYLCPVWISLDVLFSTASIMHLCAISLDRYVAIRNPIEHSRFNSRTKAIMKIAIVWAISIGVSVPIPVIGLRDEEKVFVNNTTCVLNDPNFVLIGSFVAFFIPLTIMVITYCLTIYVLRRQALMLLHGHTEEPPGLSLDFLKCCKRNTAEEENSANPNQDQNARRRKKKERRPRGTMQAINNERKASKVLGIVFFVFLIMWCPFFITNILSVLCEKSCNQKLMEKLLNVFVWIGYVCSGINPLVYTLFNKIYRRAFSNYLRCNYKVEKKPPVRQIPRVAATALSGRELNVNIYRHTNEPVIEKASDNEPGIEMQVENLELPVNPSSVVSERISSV
The series is described as follows: Radioligand competition binding assay at human 5-HT2C receptors. For orientation: Loss of bound radioactivity is the signal in a displacement assay; it reports binding, not function.

Series [1] deals with T2, 5-HT2B receptors (Homo sapiens, UniProt P41595). The series is described as follows: Functional assay of IPs accumulation at human 5-HT2B receptors. It counts as cell-based. The procedure: After 24 h, growth medium was replaced by serum-free medium containing 10 μCi/mL [^3H]myo-inositol (20.3 Ci/mmol, Perkin-Elmer) for 24 h. […] After the incubation time, assay buffer was discarded and 200 μL of 100 mM formic acid was added to the cells for 30 min at 4 °C and 20 μL of the lysate were transferred to a flexiplate plate (Perkin-Elmer, Waltham, MA, USA) together with 80 μL of a solution of RNA Binding YSi SPA Beads (Perkin-Elmer, Waltham, MA, USA) to measure accumulation of [^3H]IPs (IP1,IP2, and IP3, collectively referred to as IPs).

The target of series [2] is T2, 5-HT2B receptors. It counts as cell-based. Particulars: 3 μM, 10 min at 37 °C; image analysis and plate reader; p < 0.001. How it is done: Having finished the preliminary photophysical and pharmacological characterization of the fluorescent derivatives 12a–i, their potential to specifically label 5-HT2B receptors in live cells was evaluated. Chinese hamster ovary K1 (CHO-K1) cells and CHO-K1 cells stably expressing the human serotonin 5-HT2B receptor (CHO-K1-5-HT2B), growing in 96-well plates, were incubated with at least three different concentrations of each compound for varying times and, after compound removal and washing of the cells, plates were subjected to fluorescence microscopy using a high content imaging instrument and the appropriate excitation and emission filter set for each compound.
For cell labelling studies, cells were plated onto 96-well plates (Cell Carrier; Perkin-Elmer, Waltham, MA, USA) pre-treated with poly-D-lysine hydrobromide 0.1 mg/mL (Sigma Aldrich, Spain) at a density of 10000 cells/well and cultured for 24 h. […] Fluorescence images were acquired using an Operetta high content imaging instrument (Perkin-Elmer, Waltham, MA, USA) at 20x and 40x magnification, at excitation wavelengths of 520–550 nm and emission wavelengths of 560–630 nm (standard 5-TAMRA filter set) for compound 12i, and excitation wavelengths of 360–400 nm and emission wavelengths of 410–480 nm for Hoechst 33342 (standard Hoechst 33342 filter set). […]

The target of series [3] is T3, 5-HT2A receptors (Homo sapiens, UniProt P28223). The series is described as follows: Labelling of 5-HT2A receptors in live CHO-FA4-5-HT2A cells (fluorescence microscopy, plate reader). It counts as cell-based. Details: expressed in transfected cells; host or cells: CHO-FA4-5-HT2A cells (live). The procedure: The specificity and sensitivity of the 12i probe towards 5-HT2B receptors over other 5-HT2 receptor subtypes was evaluated by performing similar labelling experiments in CHO cells stably expressing 5-HT2A receptors (CHO-FA4-5-HT2A). […] However, even in these conditions (20 μM concentration of 12i) the signal window over background achieved for 5-HT2A labelling was considerably smaller than that detected in the case of 5-HT2B labelling at a concentration of 12i more than 6 times lower (3 μM) (Fig. 9 and Supplementary Figure S3).
For cell labelling studies, cells were plated onto 96-well plates (Cell Carrier; Perkin-Elmer, Waltham, MA, USA) pre-treated with poly-D-lysine hydrobromide 0.1 mg/mL (Sigma Aldrich, Spain) at a density of 10000 cells/well and cultured for 24 h. […] Fluorescence images were acquired using an Operetta high content imaging instrument (Perkin-Elmer, Waltham, MA, USA) at 20x and 40x magnification, at excitation wavelengths of 520–550 nm and emission wavelengths of 560–630 nm (standard 5-TAMRA filter set) for compound 12i, and excitation wavelengths of 360–400 nm and emission wavelengths of 410–480 nm for Hoechst 33342 (standard Hoechst 33342 filter set).
The fluorescence intensity of the cells labelled with compound 12i was quantified by image analysis of the acquired images using Harmony v3.5 software (Perkin-Elmer). […]

Series [4] is described as follows: Absorption and emission spectra (photophysical properties). It counts as physicochemical. The settings on record: 10 μM solutions. How it is done:
The absorption and emission spectra of the fluorescent 5-HT2 ligands (10 and 12) were determined on 10 μM solutions. The most relevant fluorescent properties are collected in Fig. 5. All of the synthesized derivatives emitted fluorescence in the visible region of the spectrum, with selected fluorescent tags (Fig. 4) providing distinctive properties and excitation wavelengths. The excitation wavelengths varied from 305 to 555 nm, whereas those for emission varied from 398 to 580 nm.

The target of series [5] is T2, 5-HT2B receptors. As to the kind of experiment: Radioligand competition binding assay at human 5-HT2B receptors.
Series [6] deals with T3, 5-HT2A receptors. The series is described as follows: Radioligand competition binding assay at human 5-HT2A receptors. Details: expressed in transfected cells; host or cells: CHO-FA4-5-HT2A cells (membranes).
For series [7], the system named is tumor necrosis factor alpha (TNF-α). Particulars: primary aortic smooth muscle cells and animal models; cited from earlier work.

T3 sequence (P28223 whole entry): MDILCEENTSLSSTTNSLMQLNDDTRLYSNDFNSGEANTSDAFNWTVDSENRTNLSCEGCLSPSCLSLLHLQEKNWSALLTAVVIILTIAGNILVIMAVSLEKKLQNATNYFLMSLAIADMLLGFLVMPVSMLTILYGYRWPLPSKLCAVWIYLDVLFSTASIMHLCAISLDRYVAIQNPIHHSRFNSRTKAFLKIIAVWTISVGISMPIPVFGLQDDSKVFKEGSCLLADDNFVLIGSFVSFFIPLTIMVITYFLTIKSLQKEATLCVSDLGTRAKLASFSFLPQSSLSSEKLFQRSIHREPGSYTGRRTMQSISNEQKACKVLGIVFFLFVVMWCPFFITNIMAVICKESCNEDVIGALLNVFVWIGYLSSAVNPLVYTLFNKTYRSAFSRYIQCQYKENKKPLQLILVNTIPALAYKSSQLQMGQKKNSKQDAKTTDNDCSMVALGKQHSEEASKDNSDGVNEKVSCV
T2 sequence (P41595 whole entry): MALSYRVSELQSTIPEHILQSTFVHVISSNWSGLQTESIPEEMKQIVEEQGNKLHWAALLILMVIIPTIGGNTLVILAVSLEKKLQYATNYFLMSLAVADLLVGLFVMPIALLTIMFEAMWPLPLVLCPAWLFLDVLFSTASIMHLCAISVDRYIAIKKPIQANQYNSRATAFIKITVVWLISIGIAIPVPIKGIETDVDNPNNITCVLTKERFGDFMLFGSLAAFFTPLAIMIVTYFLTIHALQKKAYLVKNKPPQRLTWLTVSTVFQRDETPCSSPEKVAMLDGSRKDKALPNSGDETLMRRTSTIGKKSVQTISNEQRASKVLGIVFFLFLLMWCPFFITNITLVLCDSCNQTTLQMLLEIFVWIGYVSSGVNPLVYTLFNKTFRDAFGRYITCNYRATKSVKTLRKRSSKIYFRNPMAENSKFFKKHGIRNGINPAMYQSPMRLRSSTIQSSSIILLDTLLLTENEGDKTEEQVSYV

Regarding `CCN(CC)c1ccc2c(-c3ccccc3C(=O)NCCC(=O)NCCC(=O)NCCCOCCOCCOCCCNC(=O)CCCOc3cc(I)c(OC)cc3CC(C)N)c3ccc(=[N+](CC)CC)cc-3oc2c1` (stereo not shown) [12i, N-(9-(2-((26-(2-(2-aminopropyl)-5-iodo-4-methoxyphenoxy)-3,7,23-trioxo-12,15,18-trioxa-4,8,22-triazahexacosyl)carbamoyl)phenyl)-6-(diethylamino)-3H-xanthen-3-ylidene)-N-ethylethanaminium], the melting point lay in the range of 151 to 153 °C. At human 5-HT2C receptors, this molecule gave a pKi of 6.00. At 5-HT2B receptors [1], the pEC50 was 6.65. The “fluorescence intensity of CHO-K1-5-HT2B cell wells versus control CHO-K1 cell wells” value on 5-HT2B receptors [2] is recorded as “clearly superior”. Also, at 5-HT2A receptors [3] (3 μM), the “specific labelling of 5-HT2A receptors in CHO-FA4-5-HT2A cells” value is “no statistically significant specific labelling”. Also, at 5-HT2A receptors [3] (20 μM), the “specific labelling of 5-HT2A receptors in CHO-FA4-5-HT2A cells” value is “certain specific labelling”. Also, in [4], the “Δλ (Stokes shift)” value amounted to 25 nm, the εmax is 78828 M⁻¹ cm⁻¹, the “λmax Abs” value is recorded as 555 nm and the “λmax Em” value was 580 nm. The negative logarithm of the Ki (pKi) on 5-HT2B receptors [5] is 6.58. At 5-HT2A receptors [6], the pKi was 5.91.
In the case of `COc1cc(CC(C)N)c(OC)cc1I` (stereo not shown) [DOI, 1-(2,5-Dimethoxy-4-iodophenyl)-propan-2-amine, reference compound], the results for the pKi on human 5-HT2C receptors and on 5-HT2B receptors [5] were 7.74 and 7.32, respectively. The pEC50 on 5-HT2B receptors [1] is 7.93. Besides, the “potency of blockade of the pro-inflammatory effects of TNF-α” value in series [7] is on record as “≈ 15 pM”.
